From ChEMBL document CHEMBL1201862, “PubChem BioAssay data set” (2004)
Where “and” joins values, the source holds several entries; their conditions need not be identical. Identical values can stand only once. Calls of active or inactive are those of the source.

What was measured:
Bcl-2-like protein 10 = target: T1, Bcl-2-like protein 10 (Homo sapiens, UniProt Q9HD36); test: displacers of TR3 peptide from Bcl-B, primary screen, selectivity assay for Bfl-1 inhibitor project, biochemical, fluorescence polarization, FITC-TR3 peptide (AID 748);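 further: fluorescence polarization from a fluorescein-labelled TR3 peptide binding purified Bcl-B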
T1 sequence (Q9HD36 whole entry): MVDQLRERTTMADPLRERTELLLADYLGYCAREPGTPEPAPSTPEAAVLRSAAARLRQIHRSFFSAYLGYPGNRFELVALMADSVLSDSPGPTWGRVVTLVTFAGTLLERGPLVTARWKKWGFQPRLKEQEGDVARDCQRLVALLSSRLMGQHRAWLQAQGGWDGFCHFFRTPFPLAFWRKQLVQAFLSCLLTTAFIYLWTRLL

[1] = target: T2, Alkaline phosphatase, tissue-nonspecific isozyme (Homo sapiens, UniProt P05186); test: human TNAP enzyme inhibitors, SAR follow-up, biochemical, luminescent, dose response (AID 1056)
T2 sequence (P05186 whole entry): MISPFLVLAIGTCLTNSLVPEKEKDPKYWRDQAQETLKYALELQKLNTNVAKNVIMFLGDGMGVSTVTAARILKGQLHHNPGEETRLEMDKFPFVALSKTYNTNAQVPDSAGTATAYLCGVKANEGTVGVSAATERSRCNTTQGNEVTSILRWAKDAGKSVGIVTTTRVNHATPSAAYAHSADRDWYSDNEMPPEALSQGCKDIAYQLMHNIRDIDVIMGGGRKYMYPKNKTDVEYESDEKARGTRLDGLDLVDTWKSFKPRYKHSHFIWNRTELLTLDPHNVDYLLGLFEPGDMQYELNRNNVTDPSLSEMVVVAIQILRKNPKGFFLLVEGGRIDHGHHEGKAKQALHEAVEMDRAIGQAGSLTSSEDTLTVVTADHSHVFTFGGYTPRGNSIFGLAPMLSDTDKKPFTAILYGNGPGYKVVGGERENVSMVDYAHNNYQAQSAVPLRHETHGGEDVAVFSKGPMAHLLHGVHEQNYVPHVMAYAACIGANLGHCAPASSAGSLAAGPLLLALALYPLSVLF

Leucine aminopeptidase = target: T3, Leucine aminopeptidase (Plasmodium falciparum 3D7, UniProt Q8IL11); test: P. falciparum M17LAP inhibitors, primary screen, biochemical, fluorogenic H-Leu-NHMec substrate, 1536-well (AID 1619); type: functional
T3 sequence (Q8IL11 whole entry): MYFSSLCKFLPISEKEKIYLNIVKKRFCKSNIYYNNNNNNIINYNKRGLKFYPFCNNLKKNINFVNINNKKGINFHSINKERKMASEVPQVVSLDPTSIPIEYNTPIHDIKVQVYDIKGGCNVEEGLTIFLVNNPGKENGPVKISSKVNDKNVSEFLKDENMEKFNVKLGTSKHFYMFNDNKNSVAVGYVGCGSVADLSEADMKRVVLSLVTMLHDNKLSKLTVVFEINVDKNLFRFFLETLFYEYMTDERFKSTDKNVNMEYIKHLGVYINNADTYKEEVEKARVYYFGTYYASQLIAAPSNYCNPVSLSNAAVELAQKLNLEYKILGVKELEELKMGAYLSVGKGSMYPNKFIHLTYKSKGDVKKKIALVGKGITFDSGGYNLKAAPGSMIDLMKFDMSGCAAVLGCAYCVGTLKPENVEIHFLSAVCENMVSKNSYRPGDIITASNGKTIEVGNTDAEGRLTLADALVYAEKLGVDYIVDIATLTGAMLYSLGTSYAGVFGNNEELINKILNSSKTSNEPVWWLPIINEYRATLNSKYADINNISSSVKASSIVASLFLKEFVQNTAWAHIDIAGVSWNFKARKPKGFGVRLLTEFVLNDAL

[2] = target: Alkaline phosphatase, placental type (Homo sapiens, UniProt P05187); test: PLAP enzyme inhibitors, confirmation, biochemical, luminescence (AID 1512); type: functional
Alkaline phosphatase, placental type, sequence (P05187 whole entry): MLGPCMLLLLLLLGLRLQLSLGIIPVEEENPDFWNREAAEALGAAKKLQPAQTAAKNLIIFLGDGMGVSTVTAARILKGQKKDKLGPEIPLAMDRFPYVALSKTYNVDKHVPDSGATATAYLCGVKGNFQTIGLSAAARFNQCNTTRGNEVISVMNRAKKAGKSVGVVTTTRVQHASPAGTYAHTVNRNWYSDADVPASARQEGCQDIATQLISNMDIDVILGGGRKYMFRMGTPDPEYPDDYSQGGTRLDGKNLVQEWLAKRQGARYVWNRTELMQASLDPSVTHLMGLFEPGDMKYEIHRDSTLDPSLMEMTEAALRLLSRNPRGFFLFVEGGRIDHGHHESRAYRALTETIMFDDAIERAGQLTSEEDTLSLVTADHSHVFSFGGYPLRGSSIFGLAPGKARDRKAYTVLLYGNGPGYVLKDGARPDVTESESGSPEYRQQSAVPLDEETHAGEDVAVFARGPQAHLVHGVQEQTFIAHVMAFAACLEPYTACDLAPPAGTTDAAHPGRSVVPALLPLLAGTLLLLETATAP

Large T antigen = Large T antigen (Simian virus 40, UniProt P03070); type: functional, Betapolyomavirus macacae;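 further: Confirmatory-stage PubChem screen for compounds that inhibit SV40 T antigen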
Large T antigen, sequence (P03070 whole entry): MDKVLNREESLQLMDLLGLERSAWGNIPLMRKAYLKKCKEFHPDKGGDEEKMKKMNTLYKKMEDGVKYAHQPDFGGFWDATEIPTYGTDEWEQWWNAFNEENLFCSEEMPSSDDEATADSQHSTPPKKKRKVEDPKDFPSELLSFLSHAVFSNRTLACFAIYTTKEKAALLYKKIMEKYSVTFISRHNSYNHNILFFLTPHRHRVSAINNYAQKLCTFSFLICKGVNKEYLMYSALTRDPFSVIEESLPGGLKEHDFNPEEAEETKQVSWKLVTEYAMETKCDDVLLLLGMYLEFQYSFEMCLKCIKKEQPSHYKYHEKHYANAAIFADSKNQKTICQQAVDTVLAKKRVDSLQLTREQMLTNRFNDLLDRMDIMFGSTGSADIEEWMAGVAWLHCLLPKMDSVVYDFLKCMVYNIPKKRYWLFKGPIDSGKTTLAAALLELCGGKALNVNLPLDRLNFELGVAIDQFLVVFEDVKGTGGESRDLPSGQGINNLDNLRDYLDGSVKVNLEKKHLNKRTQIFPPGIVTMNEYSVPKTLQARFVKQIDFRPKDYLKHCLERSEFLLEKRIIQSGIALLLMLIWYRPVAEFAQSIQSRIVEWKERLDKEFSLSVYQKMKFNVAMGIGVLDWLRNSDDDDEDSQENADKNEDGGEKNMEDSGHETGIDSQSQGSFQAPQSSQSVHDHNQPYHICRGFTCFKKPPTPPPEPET

[3] = target: T4, Bifunctional protein GlmU (Mycobacterium tuberculosis, UniProt P9WMN3); test: Inhibitors of Mycobacterial Glucosamine-1-phosphate acetyl transferase (GlmU). Secondary screen.; parameters: species or system Mycobacterium tuberculosis H37Rv
T4 sequence (P9WMN3 whole entry): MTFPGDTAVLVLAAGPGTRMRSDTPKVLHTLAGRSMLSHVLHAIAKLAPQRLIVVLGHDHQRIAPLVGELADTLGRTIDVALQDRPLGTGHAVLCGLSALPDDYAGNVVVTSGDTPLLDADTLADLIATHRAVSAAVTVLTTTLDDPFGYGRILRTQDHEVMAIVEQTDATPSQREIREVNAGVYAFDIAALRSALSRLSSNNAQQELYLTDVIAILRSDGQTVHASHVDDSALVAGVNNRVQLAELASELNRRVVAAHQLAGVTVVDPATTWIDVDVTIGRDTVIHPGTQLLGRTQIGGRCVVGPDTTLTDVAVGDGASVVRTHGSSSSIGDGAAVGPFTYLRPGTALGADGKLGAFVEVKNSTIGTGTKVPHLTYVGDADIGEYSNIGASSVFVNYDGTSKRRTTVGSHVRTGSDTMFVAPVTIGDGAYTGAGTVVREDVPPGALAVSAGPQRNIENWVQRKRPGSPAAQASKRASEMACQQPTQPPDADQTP

[4] = target: T5, Heat shock factor protein 1 (Mus musculus, UniProt P38532); test: HSF1 potentiators in luciferase reporter cells, confirmation, cell-based, NIH3T3, luminescence, dose retest (AID 435004); type: functional;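 further: stress induced by proteasome inhibitor MG132 added 30 min after compound; luciferase reporter driven by HSF1 response element in NIH3T3 cells; actives raise luminescence as potentiators of the MG132 stress response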
T5 sequence (P38532 whole entry): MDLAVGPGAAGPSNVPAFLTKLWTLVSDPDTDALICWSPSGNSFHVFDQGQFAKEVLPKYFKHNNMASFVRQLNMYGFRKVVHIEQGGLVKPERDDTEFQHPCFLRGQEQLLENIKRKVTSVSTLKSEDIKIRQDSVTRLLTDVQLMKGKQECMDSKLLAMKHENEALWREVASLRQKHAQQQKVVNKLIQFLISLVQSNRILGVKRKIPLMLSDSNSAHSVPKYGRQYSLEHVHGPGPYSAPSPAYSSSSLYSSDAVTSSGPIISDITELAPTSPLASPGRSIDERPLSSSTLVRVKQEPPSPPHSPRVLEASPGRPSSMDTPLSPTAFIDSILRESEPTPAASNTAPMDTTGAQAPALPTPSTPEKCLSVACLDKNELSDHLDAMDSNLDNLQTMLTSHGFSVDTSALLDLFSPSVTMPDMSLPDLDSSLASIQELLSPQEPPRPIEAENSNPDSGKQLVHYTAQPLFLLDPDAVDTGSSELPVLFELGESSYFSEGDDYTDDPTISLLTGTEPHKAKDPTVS

[5] = target: T6, Replicative DNA helicase DnaB (Mycobacterium tuberculosis, UniProt P9WMR3); test: DnaB intein splicing inhibitors, dose response, biochemical, cell-free fluorescence (AID 449749); type: functional
T6 sequence (P9WMR3 whole entry): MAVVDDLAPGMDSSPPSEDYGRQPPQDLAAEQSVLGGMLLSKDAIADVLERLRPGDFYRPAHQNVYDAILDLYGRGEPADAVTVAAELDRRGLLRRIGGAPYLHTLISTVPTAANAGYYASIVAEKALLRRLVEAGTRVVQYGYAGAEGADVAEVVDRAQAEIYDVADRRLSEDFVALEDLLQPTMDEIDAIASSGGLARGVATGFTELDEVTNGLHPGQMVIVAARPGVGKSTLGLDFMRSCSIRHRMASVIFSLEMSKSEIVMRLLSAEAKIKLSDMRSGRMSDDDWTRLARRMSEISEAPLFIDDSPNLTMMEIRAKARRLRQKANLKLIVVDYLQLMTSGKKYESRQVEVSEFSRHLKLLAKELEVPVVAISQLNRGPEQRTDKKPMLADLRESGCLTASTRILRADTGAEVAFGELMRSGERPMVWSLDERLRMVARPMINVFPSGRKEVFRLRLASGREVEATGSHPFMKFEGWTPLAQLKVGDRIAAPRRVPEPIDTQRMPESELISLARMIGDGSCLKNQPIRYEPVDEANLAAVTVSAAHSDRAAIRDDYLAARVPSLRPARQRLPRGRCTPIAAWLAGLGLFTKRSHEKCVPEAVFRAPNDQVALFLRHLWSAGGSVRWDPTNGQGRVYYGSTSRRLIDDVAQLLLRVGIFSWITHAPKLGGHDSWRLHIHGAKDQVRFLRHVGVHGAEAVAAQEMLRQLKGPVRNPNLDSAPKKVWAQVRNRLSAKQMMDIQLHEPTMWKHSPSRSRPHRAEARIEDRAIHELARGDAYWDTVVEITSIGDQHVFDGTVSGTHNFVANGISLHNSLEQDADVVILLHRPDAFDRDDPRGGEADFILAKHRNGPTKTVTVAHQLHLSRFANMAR

Saccharomyces cerevisiae = test: NALP1 inhibitor project selectivity study, Caspase-1/ASC signal blockade IC50 in S. cerevisiae (AID 488863); type: functional, organism-based
Protein RecA = target: T7, Protein RecA (Mycobacterium tuberculosis, UniProt P9WHJ3); test: Fluorescence Cell-Free Homogeneous Dose Retest to Identify Inhibitors of RecA-Intein Splicing Activity. [Related pubchem assays (depositor defined):AID2097, AID2223, AID489010, AID492950]; type: functional
T7 sequence (P9WHJ3 whole entry): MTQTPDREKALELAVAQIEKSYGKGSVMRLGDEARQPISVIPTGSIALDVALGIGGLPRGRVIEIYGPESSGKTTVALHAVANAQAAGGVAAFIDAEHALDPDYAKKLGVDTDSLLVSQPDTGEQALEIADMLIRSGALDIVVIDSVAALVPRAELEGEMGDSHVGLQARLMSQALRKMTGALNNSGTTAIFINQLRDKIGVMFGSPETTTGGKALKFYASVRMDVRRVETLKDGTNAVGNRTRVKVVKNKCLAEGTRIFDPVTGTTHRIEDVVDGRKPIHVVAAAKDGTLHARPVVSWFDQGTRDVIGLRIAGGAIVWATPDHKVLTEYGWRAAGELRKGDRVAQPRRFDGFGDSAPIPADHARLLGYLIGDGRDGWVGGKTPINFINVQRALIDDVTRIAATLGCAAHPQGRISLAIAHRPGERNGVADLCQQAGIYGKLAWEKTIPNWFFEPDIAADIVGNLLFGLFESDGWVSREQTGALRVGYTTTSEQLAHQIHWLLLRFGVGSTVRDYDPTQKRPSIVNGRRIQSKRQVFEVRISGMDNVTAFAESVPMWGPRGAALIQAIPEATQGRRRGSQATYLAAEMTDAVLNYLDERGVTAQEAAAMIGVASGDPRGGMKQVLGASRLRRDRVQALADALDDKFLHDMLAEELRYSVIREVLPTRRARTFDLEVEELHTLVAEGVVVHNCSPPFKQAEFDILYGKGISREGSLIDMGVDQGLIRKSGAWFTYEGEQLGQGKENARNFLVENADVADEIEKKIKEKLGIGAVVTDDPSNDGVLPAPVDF

[6] = growth suppression of PTEN-null colon cells, dose response, cell-based, HCT116 PTEN knockout (AID 1047); type: functional;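 further: HCT116 colon tumor cells with PTEN knocked out; cells exposed to compound for 60 hours before readout; potency for loss of cell viability measured by luminescence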
[7] = growth suppression of beta-catenin-knockout colon cells, dose response, cell-based, HCT116, human colon tumor (AID 1045); type: functional;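 further: HCT116 colon tumor cells with beta catenin knocked out; cells exposed to compound for 60 hours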
[8] = target: NACHT, LRR and PYD domains-containing protein 1 (Homo sapiens, UniProt Q9C000); test: NALP1 inhibitors in yeast, dose response, luminescent (AID 488860); type: functional
NACHT, LRR and PYD domains-containing protein 1, sequence (Q9C000 1-1212 limits assumed): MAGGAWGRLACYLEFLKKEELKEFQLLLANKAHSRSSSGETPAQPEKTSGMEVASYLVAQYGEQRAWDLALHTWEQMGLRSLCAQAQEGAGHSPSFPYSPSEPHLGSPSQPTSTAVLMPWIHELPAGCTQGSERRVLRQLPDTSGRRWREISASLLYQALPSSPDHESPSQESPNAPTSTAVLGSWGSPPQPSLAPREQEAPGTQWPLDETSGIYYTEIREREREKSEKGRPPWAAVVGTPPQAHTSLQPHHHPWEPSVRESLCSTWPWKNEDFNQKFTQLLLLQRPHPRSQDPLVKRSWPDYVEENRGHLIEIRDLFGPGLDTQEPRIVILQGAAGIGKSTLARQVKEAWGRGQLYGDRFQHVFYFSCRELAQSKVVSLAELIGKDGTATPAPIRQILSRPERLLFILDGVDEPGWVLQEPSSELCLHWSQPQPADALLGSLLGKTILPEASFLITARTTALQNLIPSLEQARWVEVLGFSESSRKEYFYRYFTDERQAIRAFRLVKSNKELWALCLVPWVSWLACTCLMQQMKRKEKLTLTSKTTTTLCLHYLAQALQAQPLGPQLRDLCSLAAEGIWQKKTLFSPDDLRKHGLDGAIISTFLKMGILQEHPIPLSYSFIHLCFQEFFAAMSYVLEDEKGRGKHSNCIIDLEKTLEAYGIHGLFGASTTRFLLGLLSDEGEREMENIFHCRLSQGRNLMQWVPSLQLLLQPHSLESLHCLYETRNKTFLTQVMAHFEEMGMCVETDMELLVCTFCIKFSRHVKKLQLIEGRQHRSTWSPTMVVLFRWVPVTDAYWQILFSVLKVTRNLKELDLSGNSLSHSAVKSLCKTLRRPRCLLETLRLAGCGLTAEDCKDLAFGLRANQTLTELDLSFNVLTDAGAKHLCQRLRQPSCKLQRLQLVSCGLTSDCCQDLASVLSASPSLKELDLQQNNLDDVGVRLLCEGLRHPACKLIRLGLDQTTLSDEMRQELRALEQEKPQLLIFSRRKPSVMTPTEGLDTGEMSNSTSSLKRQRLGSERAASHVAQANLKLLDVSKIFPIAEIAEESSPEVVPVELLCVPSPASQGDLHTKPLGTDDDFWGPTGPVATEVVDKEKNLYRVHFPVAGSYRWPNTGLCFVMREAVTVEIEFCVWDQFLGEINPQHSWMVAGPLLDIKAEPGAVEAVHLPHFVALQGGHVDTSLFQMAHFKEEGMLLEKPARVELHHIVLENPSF
NACHT, LRR and PYD domains-containing protein 1, sequence (Q9C000 1213-1473 limits assumed): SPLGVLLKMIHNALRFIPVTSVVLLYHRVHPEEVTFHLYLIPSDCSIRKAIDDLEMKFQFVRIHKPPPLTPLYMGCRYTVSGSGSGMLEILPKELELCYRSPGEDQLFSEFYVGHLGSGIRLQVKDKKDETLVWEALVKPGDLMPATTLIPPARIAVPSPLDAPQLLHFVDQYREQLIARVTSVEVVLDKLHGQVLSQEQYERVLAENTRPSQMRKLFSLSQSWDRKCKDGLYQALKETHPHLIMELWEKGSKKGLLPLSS

CAAX prenyl protease 2 = CAAX prenyl protease 2 (Saccharomyces cerevisiae S288c, UniProt Q03530); type: biochemical
CAAX prenyl protease 2, sequence (Q03530 whole entry): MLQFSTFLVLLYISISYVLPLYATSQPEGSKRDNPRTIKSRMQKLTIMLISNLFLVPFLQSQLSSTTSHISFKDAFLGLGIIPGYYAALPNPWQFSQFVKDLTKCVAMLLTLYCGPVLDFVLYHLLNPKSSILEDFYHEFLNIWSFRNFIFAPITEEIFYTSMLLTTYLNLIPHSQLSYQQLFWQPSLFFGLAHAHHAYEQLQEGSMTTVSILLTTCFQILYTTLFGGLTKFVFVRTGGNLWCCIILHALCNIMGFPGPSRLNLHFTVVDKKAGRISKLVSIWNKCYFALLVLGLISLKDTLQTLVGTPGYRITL

Structure (SMILES): C=CCn1c(SCC(=O)c2ccc(O)c(O)c2)nnc1-c1ccccc1OC
- IC50 (Bcl-2-like protein 10): > 100 µM (inactive)
- IC50 [1]: > 100 µM (inactive) and 44.8 µM (active)
- IC50 (Leucine aminopeptidase): 22.8 µM (active)
- IC50 [2]: 2.6 µM (active) and 2.79 µM (active)
- IC50 (Large T antigen): 14.7 µM (active)

Structure (SMILES): Cn1cnc([N+](=O)[O-])c1S(=O)(=O)c1ccc(Cl)cc1
- IC50 [3]: 101 µM (active)
- EC50 [4]: 17.8 µM (active)
- AC50 [5]: 19.5 µM (active)
- IC50 (Saccharomyces cerevisiae): 19.8 µM (active)
- EC50 (Protein RecA): 8.29 µM (active)
- EC50 [6]: 6.79 µM (active)
- EC50 [7]: 5.88 µM (active)
- IC50 [8]: 17.7 µM (active)

Structure (SMILES): O=C(c1cnc(Cl)c(Cl)c1)N1CCC(Cc2ccccc2)CC1
- AC50 (CAAX prenyl protease 2): 18.2 µM (active)
